Assay results as given in the supplement of paper PMC10307832.

Key:
Assay in all cases: relative viability (nuclei count vs DMSO), 5 days (fraction); higher = more cells survive
[1] = compound: O=C(c1cc(Cc2n[nH]c(=O)c3ccccc23)ccc1F)N1CCN(C(=O)C2CC2)CC1 [Olaparib] + CC(C)C[C@H](NC(=O)[C@H](Cc1ccccc1)NC(=O)c1cnccn1)B(O)O [Bortezomib] (partner 0.002 µM)
Procedure, shortened: (§1)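 Relative viability equals treated-well nuclei counts divided by vehicle-well nuclei counts. Counts came from 4× images of lung cancer cell lines grown in 1536-well plates for 5 days after pin-tool dosing on the day after seeding. Dosing used one drug alone or a fixed anchor-drug dose plus five library-drug doses (not always all listed) in √10 steps, and values are medians of duplicate plates.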

[2] = compound: CC(C)C[C@H](NC(=O)[C@H](CCc1ccccc1)NC(=O)CN1CCOCC1)C(=O)N[C@@H](Cc1ccccc1)C(=O)N[C@@H](CC(C)C)C(=O)[C@@]1(C)CO1 [Carfilzomib] + C[C@@H](Oc1cc(-c2cnn(C3CCNCC3)c2)cnc1N)c1c(Cl)ccc(F)c1Cl [Crizotinib] (partner 1 µM)
Procedure, shortened: as §1

[3] = compound: CC(C)C[C@H](NC(=O)[C@H](CCc1ccccc1)NC(=O)CN1CCOCC1)C(=O)N[C@@H](Cc1ccccc1)C(=O)N[C@@H](CC(C)C)C(=O)[C@@]1(C)CO1 [Carfilzomib] + O=C(c1cc(Cc2n[nH]c(=O)c3ccccc23)ccc1F)N1CCN(C(=O)C2CC2)CC1 [Olaparib] (partner 8 µM)
Procedure, shortened: as §1

[4] = compound: O=C(c1cc(Cc2n[nH]c(=O)c3ccccc23)ccc1F)N1CCN(C(=O)C2CC2)CC1 [Olaparib] + Cc1nc(Nc2ncc(C(=O)Nc3c(C)cccc3Cl)s2)cc(N2CCN(CCO)CC2)n1 [Dasatinib] (partner 0.075 µM)
Procedure, shortened: as §1

Row | Cell Line | relative viability ([1]; first compound 0.08 µM) | relative viability ([1]; first compound 0.253 µM) | relative viability ([1]; first compound 2.53 µM) | relative viability ([1]; first compound 8 µM) | relative viability ([2]; first compound 0.001 µM) | relative viability ([2]; first compound 0.003162 µM) | relative viability ([2]; first compound 0.01 µM) | relative viability ([2]; first compound 0.03162 µM) | relative viability ([2]; first compound 0.1 µM) | relative viability ([3]; first compound 0.001 µM) | relative viability ([3]; first compound 0.003162 µM) | relative viability ([3]; first compound 0.01 µM) | relative viability ([3]; first compound 0.03162 µM) | relative viability ([3]; first compound 0.1 µM) | relative viability ([4]; first compound 0.08 µM) | relative viability ([4]; first compound 0.253 µM) | relative viability ([4]; first compound 2.53 µM) | relative viability ([4]; first compound 8 µM)
1 | NCI-H650 | 0.978 | 0.672 | 0.561 | 0.516 | 0.677 | 0.996 | 0.698 | 0.577 | 0.132 | 0.363 | 0.382 | 0.414 | 0.247 | 0.112 | 0.478 | 0.428 | 0.424 | 0.372
2 | NCI-H1755 | 1.03 | 0.92 | 0.921 | 0.893 | 0.817 | 0.904 | 0.894 | 0.498 | 0.189 | 0.978 | 0.934 | 0.875 | 0.609 | 0.343 | 0.477 | 0.399 | 0.44 | 0.404
3 | NCI-H1666 | 0.771 | 0.799 | 0.633 | 0.65 | 1.07 | 1.14 | 1.08 | 0.409 | 0.211 | 0.757 | 0.782 | 0.75 | 0.709 | 0.528 | 0.883 | 0.68 | 0.693 | 0.651
4 | NCI-H1792 | 1.02 | 0.735 | 0.804 | 0.784 | 0.946 | 0.938 | 1.01 | 0.985 | 0.642 | – | 0.41 | 0.633 | 0.393 | 0.0411 | 0.816 | 0.689 | 0.841 | 0.62
5 | CAL-12T | 1.16 | 0.842 | 1.04 | 1.03 | – | 0.814 | 0.72 | 0.18 | 0.0912 | 0.765 | 0.744 | 0.702 | 0.265 | 0.145 | 0.597 | 0.281 | 0.363 | 0.283
6 | EPLC-272H | 1.1 | 0.819 | 0.965 | 0.848 | 0.441 | 1.07 | 0.811 | 0.11 | 0.0759 | 0.825 | 0.864 | 0.302 | 0.0584 | 0.0607 | 0.43 | 0.293 | 0.414 | 0.338
7 | PC-14 | 1.04 | 0.892 | 0.78 | 0.682 | 0.939 | 0.934 | 0.9 | 0.326 | 0.0895 | 0.281 | 0.334 | 0.243 | 0.0393 | 0.0576 | 0.333 | 0.231 | 0.311 | 0.205
8 | NCI-H1437 | 0.504 | 0.422 | 0.529 | 0.424 | 0.915 | 1.04 | 0.898 | 0.835 | 0.184 | 0.629 | 0.666 | 0.645 | 0.419 | 0.171 | 0.548 | 0.399 | 0.441 | 0.39
9 | H3255 | 0.935 | 0.728 | 0.703 | 0.728 | 0.962 | 1.04 | 1.07 | 0.761 | 0.186 | 0.565 | 0.609 | 0.668 | 0.402 | 0.235 | 0.401 | 0.274 | 0.491 | 0.425
10 | NCI-H1355 | 1.19 | 1.14 | 1.15 | 1.12 | 1.05 | 1.05 | 1.03 | 0.695 | 0.139 | 0.732 | 0.777 | 0.754 | 0.62 | 0.118 | 0.759 | 0.731 | 0.724 | 0.703
11 | LCLC-103H | 1.04 | 1.07 | 1.05 | 0.948 | 1.03 | 1.01 | 1.07 | 0.888 | 0.204 | 0.733 | 0.781 | 0.793 | 0.428 | 0.354 | 0.61 | 0.49 | 0.445 | 0.532
12 | NCI-H838 | 0.956 | 0.738 | 0.771 | 0.9 | 0.876 | 0.972 | 0.923 | 0.577 | 0.122 | 0.79 | 0.799 | 0.785 | 0.126 | 0.109 | 0.303 | 0.259 | 0.272 | 0.256
13 | BEN | 0.651 | 0.632 | 0.881 | 0.829 | 0.898 | 1.18 | 0.923 | 0.757 | 0.311 | 1.02 | 1.29 | 1.18 | 1.03 | 0.376 | – | 0.32 | 0.325 | 0.35
14 | NCI-H1651 | 0.892 | 0.901 | 0.781 | 0.451 | 0.874 | 0.914 | 0.782 | 0.383 | 0.122 | 0.184 | 0.188 | 0.167 | 0.101 | 0.0957 | 0.423 | 0.311 | 0.31 | 0.218
15 | NCI-H2087 | 0.96 | 0.753 | 0.842 | 0.66 | 0.876 | 1.03 | 0.827 | 0.0787 | 0.091 | 0.589 | 0.783 | 0.374 | 0.0505 | 0.0285 | 1.27 | 0.621 | 0.804 | 0.617
16 | NCI-H520 | 0.788 | 0.336 | 0.671 | 0.209 | 0.759 | 0.883 | 0.665 | 0.103 | 0.106 | 0.307 | 0.297 | 0.203 | 0.161 | 0.15 | 0.176 | 0.178 | 0.189 | 0.153
17 | NCI-H460 | 1.14 | 1.02 | 0.891 | 0.277 | 0.921 | 1.01 | 0.852 | 0.0558 | 0.0115 | 0.41 | 0.444 | 0.485 | 0.443 | 0.0304 | 0.471 | 0.464 | 0.32 | 0.178
18 | NCI-H661 | 1.06 | 0.745 | 0.703 | 0.582 | 0.861 | 0.971 | 1.01 | 0.985 | 0.867 | 0.731 | 0.806 | 0.725 | 0.684 | 0.312 | 0.801 | 0.769 | 0.7 | 0.715
19 | NCI-H1993 | 1.06 | 1.16 | 1.06 | 1.18 | 0.871 | 0.97 | 1.12 | 0.807 | 0.473 | 0.984 | 1.11 | 1.1 | 1.04 | 0.407 | 0.725 | 0.556 | 0.656 | 0.716
20 | NCI-H23 | 1.28 | 0.717 | 0.581 | 0.482 | 0.637 | 0.612 | 0.587 | 0.153 | 0.134 | 0.365 | 0.391 | 0.287 | 0.0921 | 0.101 | 0.922 | 0.802 | 0.61 | 0.488
21 | LCLC-97TM1 | 0.729 | 0.475 | 1.03 | 0.276 | 0.354 | 0.339 | 0.352 | 0.0915 | 0.129 | 0.367 | 0.527 | 0.318 | 0.0498 | 0.0493 | 0.871 | 0.789 | 0.857 | 0.776
22 | NCI-H1915 | 0.957 | 0.758 | 0.792 | 0.645 | 0.879 | 0.927 | 0.887 | 0.434 | 0.069 | 0.292 | 0.265 | 0.248 | 0.247 | 0.058 | 0.315 | 0.294 | 0.28 | 0.252
23 | LOU-NH91 | 0.502 | 0.462 | 0.512 | 0.394 | 0.818 | 0.798 | 0.77 | 0.434 | 0.277 | 0.923 | 0.992 | 0.871 | 0.34 | 0.287 | 0.6 | 0.473 | 0.525 | 0.589
24 | EKVX | 1.42 | 0.987 | 0.995 | 0.994 | 0.936 | 0.819 | 0.941 | 0.887 | 0.348 | 0.854 | 0.908 | 1.02 | – | 0.231 | 0.271 | 0.406 | 0.428 | 0.599
25 | SK-LU-1 | 1.33 | 1.08 | 1.23 | 1.19 | 0.885 | 1.02 | 0.807 | 0.575 | 0.152 | 0.421 | 0.54 | 0.438 | 0.198 | 0.147 | 0.197 | 0.159 | 0.181 | 0.161
26 | LXF-289 | 1.09 | 0.941 | 1.03 | 0.992 | 0.797 | 0.857 | 0.855 | 0.148 | 0.0565 | 1.09 | 1.19 | 1.07 | 0.0687 | 0.0894 | 0.217 | 0.172 | 0.196 | 0.171
27 | NCI-H2009 | 1.06 | 0.953 | 0.914 | 0.638 | 1.07 | 1.14 | 1.09 | 0.37 | 0.0428 | 0.736 | 0.732 | 0.729 | 0.631 | 0.0565 | 0.42 | 0.279 | 0.304 | 0.272
28 | HCC-827 | 1.01 | 0.943 | 1.03 | 0.95 | 1.02 | 0.953 | 0.985 | 0.858 | 0.271 | 0.671 | 0.619 | 0.712 | 0.643 | 0.108 | 0.27 | 0.315 | 0.387 | 0.281
29 | NCI-H3122 | 1.01 | 0.985 | 0.993 | 0.947 | 0.3 | 0.286 | 0.259 | 0.303 | 0.274 | 0.654 | 0.611 | 0.609 | 0.452 | 0.269 | 0.463 | 0.823 | 0.873 | 0.696
